Key:
CD34+ cells [1] = assay: NK cell expansion in three-stage NK culture with compound; format: cell-based, human; conditions: for expansion, differentiation and cytotoxicity profiles compared to SR1: PNK-007 culture; for support of NK (PNK-007) expansion: compound at 10 μM during the first 14 days, 35-day culture; for NK cell expansion compared to SR1: compound and SR1 at 10 μM, Day 35
Description: (§1) UCB CD34+ cells were cultivated in presence of cytokines including thrombopoietin, SCF, Flt3 ligand, IL-7, IL-15 and IL-2 for 35 days to produce three-stage NK cells, as described in Example 1. Multi-color flow cytometry was used to determine the phenotypic characteristics of three-stage NK cells.
(§2) For biological testing, the compounds were provided to culture to evaluate their effects on NK cell expansion and differentiation. Specifically, donors of CD34^+ cells (StemCell Technology) were thawed and expanded in vitro following NK culture protocol. During the first 14 days of the culture, each CRL compounds was dissolved in DMSO and added to the culture at 10 μM concentration. SR1 (at 10 μM) served as a positive control compound, while DMSO alone without any compound served as a negative control. At the end of the culture on Day 35, cell expansion, natural killer (NK) cell differentiation and cytotoxicity of the cells against K562 tumor cell line were characterized. Due to the large number of the compounds, the testing was performed in two experiments, CRL1-11 and CRL 12-22. The same donors were used for each experiment. Positive and negative controls were also included in both experiments.

CD34 cells = assay: CD34 cell expansion at Day 14 of the culture; format: cell-based, human; conditions: compound at 10 μM
Protocol: as §2

K562 tumor cells = assay: Cytotoxicity assay of compound cultured cells against K562; format: cell-based; conditions: K562, 10:1 effector to target ratio
Protocol: as §2
Cytotoxicity assay was run using compound cultured cells against K562 tumor cells at 10:1 effector to target ratio (FIG. 5) to evaluate cell functions.

CD34+ cells [2] = assay: NK cell differentiation of compound cultured cells (flow cytometry); format: cell-based, human; conditions: PNK-007 culture
Description: as §1, §2

Row | Structure (SMILES) | expansion, differentiation and cytotoxicity profiles compared to SR1 (CD34+ cells [1]) | support of NK (PNK-007) expansion (CD34+ cells [1]) | CD34 cell expansion (CD34 cells) | NK cell expansion compared to SR1 (CD34+ cells [1]) | killing activities compared to cells cultured with SR1 (K562 tumor cells) | CD56+/CD11a+ subpopulation compared to SR1 (CD34+ cells [2])
1 | N#Cc1cncc(-c2nc(NCCc3c[nH]c4ccccc34)c3occc3n2)c1 [CRL22, 5-(4-((2-(1H-indol-3-yl)ethyl)amino)furo[3,2-d]pyrimidin-2-yl)nicotinonitrile] | very similar expansion, differentiation and cytotoxicity profiles as SR1 | supported cell expansion the best | highest CD34 cell expansion | – | – | –
2 | CC(C)c1csc2c(NCCc3c[nH]c4ccccc34)nc(-c3cncc(F)c3)nc12 [CRL18, N-(2-(1H-indol-3-yl)ethyl)-2-(5-fluoropyridin-3-yl)-7-isopropylthieno[3,2-d]pyrimidin-4-amine] | – | – | – | slightly less expansion compared to SR1 | increased killing activities of the cells | increased CD56+/CD11a+ subpopulation
3 | CC(C)c1csc2c(NCCc3c[nH]c4ccccc34)nc(-c3cncc(C#N)c3)nc12 [CRL17, 5-(4-((2-(1H-indol-3-yl)ethyl)amino)-7-isopropylthieno[3,2-d]pyrimidin-2-yl)nicotinonitrile] | – | – | – | slightly less expansion compared to SR1 | increased killing activities of the cells | increased CD56+/CD11a+ subpopulation
4 | Fc1cncc(-c2nc(NCCc3c[nH]c4ccccc34)c3occc3n2)c1 [CRL19, N-(2-(1H-indol-3-yl)ethyl)-2-(5-fluoropyridin-3-yl)furo[3,2-d]pyrimidin-4-amine] | very similar expansion, differentiation and cytotoxicity profiles as SR1 | supported cell expansion the best | highest CD34 cell expansion | – | – | –
5 | CCC(C)Nc1nc(NCCc2c[nH]c3ccccc23)c2ccccc2n1 (centres unmarked) [CRL13, N^4-(2-(1H-indol-3-yl)ethyl)-N^2-(sec-butyl)quinazoline-2,4-diamine] | – | all the compounds except CRL7 and CRL13 supported PNK-007 expansion and differentiation | – | – | – | –
6 | Cc1cncc(-c2nc(NCCc3c[nH]c4ccccc34)c3scc(C(C)C)c3n2)c1 [CRL21, N-(2-(1H-indol-3-yl)ethyl)-7-isopropyl-2-(5-methylpyridin-3-yl)thieno[3,2-d]pyrimidin-4-amine] | – | – | – | slightly less expansion compared to SR1 | increased killing activities of the cells | increased CD56+/CD11a+ subpopulation
7 | Cc1cncc(-c2nc(NCCc3c[nH]c4ccccc34)c3occc3n2)c1 [CRL20, N-(2-(1H-indol-3-yl)ethyl)-2-(5-methylpyridin-3-yl)furo[3,2-d]pyrimidin-4-amine] | very similar expansion, differentiation and cytotoxicity profiles as SR1 | supported cell expansion the best | highest CD34 cell expansion | – | – | –
8 | CCC(C)Nc1cc(-c2cncc(C#N)c2)nc(NCCc2c[nH]c3ccccc23)n1 (centres unmarked) [CRL7, 5-(2-((2-(1H-indol-3-yl)ethyl)amino)-6-(sec-butylamino)pyrimidin-4-yl)nicotinonitrile] | – | all the compounds except CRL7 and CRL13 supported PNK-007 expansion and differentiation | – | – | – | –
